Results on three compounds are retold here after patent US9505725B2, “Crystalline and mesomorphous forms of an AKT inhibiting pyrimidinyl-cyclopentane compound, compositions and methods thereof” (priority 2012, dated 2016).

Structures are written as SMILES. Like-named read-outs stand apart in the source and are kept apart here.

As usually defined, the solubility is the concentration that dissolves in the medium under given conditions.

Series [1] can be described thus: Hygroscopicity / water sorption analysis. As to conditions: continuous water sorption profile at 25° C. from 0-90% RH. The format is physicochemical.
Series [2] in a line: Variable temperature XRPD (thermal stability of the solid form). The format is physicochemical. Particulars: heating, XRPD as a function of temperature. As to the method:
Heating the product of Example 1 leads to loss in structure (diffracted peaks start to disappear in the 100-160° C. range) and the solid-state form becomes amorphous.
At temperatures ≧80° C., there is substantial loss of crystallinity. In both samples, they appear to be X-ray amorphous at 90° C. and above (due to melting of the lattice solvent and dissolution of the solid phase in it as confirmed by hot stage microscopy).

The nature of series [3]: XRPD after exposure to water vapor (relative humidity). The format is physicochemical. As to conditions: room temperature, different RH conditions, 5-7 days.
The nature of series [4]: Critical micelle concentration in propylene glycol caprylate (Capryol 90). The format is physicochemical. As to conditions: in propylene glycol caprylate (e.g., Capryol 90). As to the method:
Such high doses are generally unachievable with active pharmaceutical ingredients in the lipid like liquid fill solvent systems. […] The critical micelle concentration for GDC-0068 in propylene glycol caprylate (e.g., Capryol 90™) was determined to be 0.945 g/g.

The conditions of series [5]: forms isolated in Example 14 of U.S. Pat. No. 8,063,050; cited from earlier work.
The nature of series [6]: Solubility in solvents, antisolvents and liquid fill solvents. The format is physicochemical. Particulars: organic solvent or mixture.
Text: In one example, antisolvents include pentane, hexane, cyclohexane, heptane, ethyl acetate, iso-propyl acetate, methyl t-butyl ether (MTBE) and methyl iso-butyl ketone.
In one example, solvents include water, alcohols such as methanol, ethanol, isopropanol, 2-butanol, t-butanol and 2-methoxy ethanol, polar ethers such as tetrahydrofuran and 2-methyltetrahydrofuran, toluene, chloroform, dichloromethane, 1,2-dichloroethane and acetone.

On to `CC(C)NC[C@@H](C(=O)N1CCN(c2ncnc3c2[C@H](C)C[C@H]3O)CC1)c1ccc(Cl)cc1.Cl` [Example 1, (S)-2-(4-chlorophenyl)-1-(4-((5R,7R)-7-hydroxy-5-methyl-6,7-dihydro-5H-cyclopenta[d]pyrimidin-4-yl)piperazin-1-yl)-3-(isopropylamino)propan-1-one monohydrochloride], for which, in series [1], the deliquescence point is on record as around 75 % RH. Besides, the “temperature range in which diffracted peaks start to disappear (loss in structure, becomes amorphous)” value in series [2] was 100-160 °C. For the same compound, the “effect of water vapor exposure on crystallinity” value in series [3] is recorded as “loses crystallinity”.
In series [4], `CC(C)NC[C@@H](C(=O)N1CCN(c2ncnc3c2[C@H](C)C[C@H]3O)CC1)c1ccc(Cl)cc1` [GDC-0068, (S)-2-(4-chlorophenyl)-1-(4-((5R,7R)-7-hydroxy-5-methyl-6,7-dihydro-5H-cyclopenta[d]pyrimidin-4-yl)piperazin-1-yl)-3-(isopropylamino)propan-1-one] showed a critical micelle concentration of 0.945 g/g. In addition, the hygroscopicity result in series [5] is “hygroscopic”.
On to `CC(C)NC[C@@H](C(=O)N1CCN(c2ncnc3c2[C@H](C)C[C@H]3O)CC1)c1ccc(Cl)cc1.Cl` [compound of formula I, (S)-2-(4-chlorophenyl)-1-(4-((5R,7R)-7-hydroxy-5-methyl-6,7-dihydro-5H-cyclopenta[d]pyrimidin-4-yl)piperazin-1-yl)-3-(isopropylamino)propan-1-one monohydrochloride], for which the solubility is below 20 mg/mL in series [6] (antisolvents (organic liquids), pentane, hexane, cyclohexane, heptane, ethyl acetate, iso-propyl acetate, MTBE, methyl iso-butyl ketone, read-out: solubility in antisolvents); above 20 mg/mL in series [6] (solvents (water and organic liquids), water, methanol, ethanol, isopropanol, 2-butanol, t-butanol, 2-methoxy ethanol, THF, 2-methyltetrahydrofuran, toluene, chloroform, dichloromethane, 1,2-dichloroethane, acetone, read-out: solubility in solvents).
